Measurements from US11814367B2, “Inhibitors of glycogen synthase 1 (GYS1) and methods of use thereof” (Maze Therapeutics, Inc., priority 2021, dated 2023).

Tests used:
[1] = tested on: hGYS1 enzyme / glycogen synthesis in HeLa cells; assay: GYS1 cell based assay (glycogen synthesis, Glucose-glo); set-up: species or system human; conditions: 24 h incubation, 20 mM glucose, geometric mean of at least 2 runs
Procedure, shortened: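 HeLa cells starved 24 h in medium containing only 1× Glutamax were plated onto compound in medium with 20 mM glucose (1% DMSO final) for 24 h, 37 °C, 5% CO2. Acid lysates were Tris-quenched, glucoamylase-digested (pH 5.3, 1 h, 37 °C) and read by Glucose-glo luminescence. IC50 came from Hill fits, as geometric mean of ≥2 runs.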

[2] = molecular target: hGYS1 enzyme (recombinant hGYS1/GN1 protein) (Homo sapiens (Human), UniProt P13807); assay: GYS1 coupled enzyme assay (PK/LDH); format: biochemical; conditions: hGYS1/GN1 50 nM, UDP-Glucose 0.8 mM, G6P 1 mM; geometric mean of at least 2 runs
hGYS1 enzyme (recombinant hGYS1/GN1 protein), sequence (P13807 whole entry): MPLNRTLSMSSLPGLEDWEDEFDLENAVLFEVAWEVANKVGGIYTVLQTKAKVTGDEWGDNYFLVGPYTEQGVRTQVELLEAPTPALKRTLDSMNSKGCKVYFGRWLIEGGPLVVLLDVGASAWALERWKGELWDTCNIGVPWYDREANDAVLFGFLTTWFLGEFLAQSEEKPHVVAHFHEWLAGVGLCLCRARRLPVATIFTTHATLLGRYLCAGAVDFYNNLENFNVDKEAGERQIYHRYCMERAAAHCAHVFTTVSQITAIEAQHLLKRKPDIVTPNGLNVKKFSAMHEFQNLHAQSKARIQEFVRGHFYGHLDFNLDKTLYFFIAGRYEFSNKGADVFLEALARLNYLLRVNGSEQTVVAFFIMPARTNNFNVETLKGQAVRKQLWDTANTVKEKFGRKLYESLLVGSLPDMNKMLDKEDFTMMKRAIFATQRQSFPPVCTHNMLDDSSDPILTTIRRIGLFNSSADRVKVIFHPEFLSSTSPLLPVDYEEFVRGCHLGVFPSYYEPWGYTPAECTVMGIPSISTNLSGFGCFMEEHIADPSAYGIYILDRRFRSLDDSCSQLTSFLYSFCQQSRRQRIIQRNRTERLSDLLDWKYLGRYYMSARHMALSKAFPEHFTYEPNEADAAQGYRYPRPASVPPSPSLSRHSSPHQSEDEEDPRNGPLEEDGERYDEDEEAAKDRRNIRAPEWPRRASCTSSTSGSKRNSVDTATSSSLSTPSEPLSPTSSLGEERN
hGYS1 enzyme (recombinant hGYS1/GN1 protein), sequence (P46976 whole entry partner): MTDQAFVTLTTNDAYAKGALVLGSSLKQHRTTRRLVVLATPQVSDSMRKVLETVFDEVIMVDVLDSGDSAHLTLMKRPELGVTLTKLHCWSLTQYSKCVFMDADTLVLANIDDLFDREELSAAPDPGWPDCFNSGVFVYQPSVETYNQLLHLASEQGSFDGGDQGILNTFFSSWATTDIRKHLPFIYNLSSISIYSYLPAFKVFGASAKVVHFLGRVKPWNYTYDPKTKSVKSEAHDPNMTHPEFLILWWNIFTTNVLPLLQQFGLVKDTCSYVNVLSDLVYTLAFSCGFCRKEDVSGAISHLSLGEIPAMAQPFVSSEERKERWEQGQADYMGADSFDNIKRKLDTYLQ

| Compound | IC50 ([1]; Homo sapiens, HeLa, 24 h) [nM] | IC50 [2] [nM] | IC50 [1] [nM] |
| --- | --- | --- | --- |
| CC1(c2ccc([C@@H](NC(=O)[C@@H]3C[C@@H](F)CN3C(=O)Cc3cc4ccccc4[nH]3)c3ccccc3)nc2F)CC1 [Compound 598, (2S,4R)-4-fluoro-N-[(S)-[6-fluoro-5-(1-methylcyclopropyl)pyridin-2-yl](phenyl)methyl]-1-[2-(1H-indol-2-yl)acetyl]pyrrolidine-2-carboxamide] | 2180 | 153 | – |
| Cc1cc(C(NC(=O)[C@@H]2C[C@@H](F)CN2C(=O)CNC(=O)N(C)C)c2cccnc2N)ccc1C(C)C (single isomer, unassigned) [Compound 622, (2S,4R)-N-[(R) or (S)-(2-aminopyridin-3-yl)[3-methyl-4-(propan-2-yl)phenyl]methyl]-1-{2-[(dimethylcarbamoyl)amino]acetyl}-4-fluoropyrrolidine-2-carboxamide] | > 10000 | 443 | – |
| Cc1cc(C(F)F)nn1CC(=O)N1C[C@H](F)C[C@H]1C(=O)N[C@@H](c1ccccc1)c1ccc(C2CC2)c(F)n1 [Compound 752, (2S,4R)-N-[(S)-(5-cyclopropyl-6-fluoropyridin-2-yl)(phenyl)methyl]-1-{2-[3-(difluoromethyl)-5-methyl-1H-pyrazol-1-yl]acetyl}-4-fluoropyrrolidine-2-carboxamide] | 640 | 21 | – |
| Cc1cc(C(NC(=O)[C@@H]2C[C@@H](F)CN2C(=O)Cc2cnn[nH]2)c2ccccc2)cc(F)c1C(C)C (single isomer, unassigned) [Compound 678, (2S,4R)-4-fluoro-N-[(R) or (S)-[3-fluoro-5-methyl-4-(propan-2-yl)phenyl](phenyl)methyl]-1-[2-(1H-1,2,3-triazol-5-yl)acetyl]pyrrolidine-2-carboxamide] | – | 1060 | > 10000 |
| O=C(N[C@H](c1ccccc1)c1ccc(C2CC(F)(F)C2)c(F)n1)[C@@H]1C[C@@H](F)CN1C(=O)Cc1ccc[nH]c1=O [Compound 521, (2S,4R)-N-[(R)-[5-(3,3-difluorocyclobutyl)-6-fluoropyridin-2-yl](phenyl)methyl]-4-fluoro-1-[2-(2-oxo-1,2-dihydropyridin-3-yl)acetyl]pyrrolidine-2-carboxamide] | > 30000 | 2610 | – |
| CC1(c2ccc([C@H](NC(=O)[C@@H]3C[C@@H](F)CN3C(=O)Cc3cnn[nH]3)c3ccccc3)cc2F)CCC1 [Compound 684, (2S,4R)-4-fluoro-N-[(R)-[3-fluoro-4-(1-methylcyclobutyl)phenyl](phenyl)methyl]-1-[2-(1H-1,2,3-triazol-5-yl)acetyl]pyrrolidine-2-carboxamide] | 13800 | 1330 | – |
| O=C(N[C@@H](c1ccccc1)c1ccc(C2CC2)c(F)n1)[C@@H]1C[C@@H](F)CN1C(=O)Cn1ccc(C(F)(F)F)n1 [Compound 730, (2S,4R)-N-[(S)-(5-cyclopropyl-6-fluoropyridin-2-yl)(phenyl)methyl]-4-fluoro-1-{2-[3-(trifluoromethyl)-1H-pyrazol-1-yl]acetyl}pyrrolidine-2-carboxamide] | 760 | 37 | – |
| O=C(N[C@@H](c1ccccc1)c1ccc(C2CC2)c(F)n1)[C@@H]1C[C@@H](F)CN1C(=O)CNC(=O)N(Cc1ccccc1)C(F)(F)F [Compound 744, (2S,4R)-1-(2-{[benzyl(trifluoromethyl)carbamoyl]amino}acetyl)-N-[(S)-(5-cyclopropyl-6-fluoropyridin-2-yl)(phenyl)methyl]-4-fluoropyrrolidine-2-carboxamide] | 1520 | 46 | – |
| Cn1c(=O)[nH]c2c(C(NC(=O)[C@@H]3C[C@@H](F)CN3C(=O)Cc3cnn[nH]3)c3ccc(C4CC4)c(F)c3)cccc21 (single isomer, unassigned) [Compound 650, (2S,4R)-N-[(R) or (S)-(4-cyclopropyl-3-fluorophenyl)(1-methyl-2-oxo-2,3-dihydro-1H-1,3-benzodiazol-4-yl)methyl]-4-fluoro-1-[2-(1H-1,2,3-triazol-5-yl)acetyl]pyrrolidine-2-carboxamide] | > 10000 | 1440 | – |
| CCn1cc(CC(=O)N2C[C@H](F)C[C@H]2C(=O)N[C@@H](c2ccccc2)c2ccc(C(C)C)c(F)n2)cc(C)c1=O [Compound 796, (2S,4R)-1-[2-(1-ethyl-5-methyl-6-oxo-1,6-dihydropyridin-3-yl)acetyl]-4-fluoro-N-[(S)-[6-fluoro-5-(propan-2-yl)pyridin-2-yl](phenyl)methyl] pyrrolidine-2-carboxamide] | 110 | 5 | – |
| CCn1cc(CC(=O)N2C[C@H](F)C[C@H]2C(=O)N[C@@H](c2ccccc2)c2ccc(C3CC(F)(F)C3)c(F)n2)cc(C)c1=O [Compound 523, (2S,4R)-N-[(S)-[5-(3,3-difluorocyclobutyl)-6-fluoropyridin-2-yl](phenyl)methyl]-1-[2-(1-ethyl-5-methyl-6-oxo-1,6-dihydropyridin-3-yl)acetyl]-4-fluoropyrrolidine-2-carboxamide] | 80 | 5 | – |
| CCN(CC)c1cnnn1CC(=O)N1C[C@H](F)C[C@H]1C(=O)N[C@@H](c1ccccc1)c1ccc(C(C)C)c(F)n1 [Compound 805, (2S,4R)-1-{2-[5-(diethylamino)-1H-1,2,3-triazol-1-yl]acetyl}-4-fluoro-N-[(S)-[6-fluoro-5-(propan-2-yl)pyridin-2-yl](phenyl)methyl] pyrrolidine-2-carboxamide] | 280 | 12 | – |
| CCOc1ncc(CC(=O)N2C[C@H](F)C[C@H]2C(=O)N[C@@H](c2ccccc2)c2ccc(C3CC(F)(F)C3)c(F)n2)cc1C [Compound 524, (2S,4R)-N-[(S)-[5-(3,3-difluorocyclobutyl)-6-fluoropyridin-2-yl](phenyl)methyl]-1-[2-(6-ethoxy-5-methylpyridin-3-yl)acetyl]-4-fluoropyrrolidine-2-carboxamide] | 190 | 6 | – |
| CC1(c2ccc([C@@H](NC(=O)[C@@H]3C[C@@H](F)CN3C(=O)Cc3cnn[nH]3)c3cccnc3)cc2F)CC1 [Compound 559, (2S,4R)-4-fluoro-N-[(R)-[3-fluoro-4-(1-methylcyclopropyl)phenyl](pyridin-3-yl)methyl]-1-[2-(1H-1,2,3-triazol-5-yl)acetyl]pyrrolidine-2-carboxamide] | > 22100 | 1580 | – |
| CCN(CC)c1cnnn1CC(=O)N1C[C@H](F)C[C@H]1C(=O)N[C@@H](c1ccccc1)c1ccc(C(C)C)cn1 [Compound 713, (2S,4R)-1-{2-[5-(diethylamino)-1H-1,2,3-triazol-1-yl]acetyl}-4-fluoro-N-[(S)-phenyl[5-(propan-2-yl)pyridin-2-yl]methyl]pyrrolidine-2-carboxamide] | 860 | 74 | – |
| CCn1cc(CC(=O)N2C[C@H](F)C[C@H]2C(=O)N[C@@H](c2ccccc2)c2ccc(C3CC(F)(F)C3)c(F)n2)ncc1=O [Compound 527, (2S,4R)-N-[(S)-[5-(3,3-difluorocyclobutyl)-6-fluoropyridin-2-yl](phenyl)methyl]-1-[2-(4-ethyl-5-oxo-4,5-dihydropyrazin-2-yl)acetyl]-4-fluoropyrrolidine-2-carboxamide] | 250 | 7 | – |
